Entries after “also recorded” stand apart in the source; their conditions may differ. Blank lines part the entries; values can stand above or below the molecule they belong to. Square brackets hold non-standard residues; d marks the D form. Primed or numbered codes have the meaning given here. Ends that are not written are not given here. fluorescein″ = fluorescein label on the N-terminus; fluorescein = N-terminal fluorescein label; pS = N[C@@H](COP(=O)(O)O)C(=O)O
Assays:
human 14-3-3γ = molecular target: T1, human 14-3-3γ (Homo sapiens, UniProt P61981); assay: Fluorescence polarization (FP) direct binding assay; settings: fluorescein-labeled peptide 1 nM; for Kd: 20 mM MOPS pH 7, 150 mM NaCl, 0.005% CHAPS, at least three independent measurements, read-out: Binding affinity (KD) toward 14-3-3 isoform γ; for Binding to 14-3-3γ, in words: dilution series of 14-3-3γ (at least 5 μM down to pM), FP buffer pH 7
T1 construct: MBP (cleaved yes); made in house; host or cells: E. coli BL21DE3
T1 sequence (P61981 1-247): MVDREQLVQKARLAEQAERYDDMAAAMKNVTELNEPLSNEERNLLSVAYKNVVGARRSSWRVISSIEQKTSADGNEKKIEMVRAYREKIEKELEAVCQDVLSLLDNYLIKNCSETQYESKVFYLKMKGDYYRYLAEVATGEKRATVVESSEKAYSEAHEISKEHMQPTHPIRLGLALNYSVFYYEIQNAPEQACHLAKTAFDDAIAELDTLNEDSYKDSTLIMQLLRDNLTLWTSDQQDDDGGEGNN
Method: (§1) Human MBP-tagged 14-3-3 isoforms were expressed from pMAL2CX plasmids [[Kilisch et al. (2016)], [Yuan et al. (2003)]] in E. coli BL21DE3 cells. After induction with […] isopropyl-β-D-thiogalactoside, the protein was expressed for 4 h at room temperature. Cells were lysed in MBP-lysis buffer [50 mM Tris–HCl pH 7.5, 150 mM NaCl, 5 mM MgCl2, 1 mM PMSF, 1× cOmplete Protease Inhibitor EDTA-free (Roche)] using a French Pressure cell (FRENCH Press, Thermo, United States). Following centrifugation at 42,000 × g and 4°C for 30 min, the supernatant was transferred to a Maltose-agarose column (1.5 ml bed volume; New England Biolabs GmbH, Germany). Captured proteins were washed six times with 10 ml wash buffer (50 mM Tris–HCl pH 7.5, 150 mM NaCl, 5 mM MgCl2) prior to elution using wash buffer including 15 mM D-maltose. To remove the MBP tag, fusion proteins were incubated with Factor Xa (New England Biolabs GmbH, Germany), at a final concentration of 0.4 μg per 1 mg fusion protein for 24 h at RT following another 72 h at 4°C. Anion exchange chromatography was finally applied to separate residual MBP using a buffer gradient from 20 mM Tris pH 8 to 20 mM Tris pH 8 with 1 M NaCl. For this a RESOURCE Q column (GE Healthcare, United Kingdom) was utilized, employing an ÄKTApurifier (GE Healthcare, United Kingdom) or an NGC Quest Chromatography System (Bio-Rad Laboratories GmbH, Germany).
(§2) FP was used to determine binding affinities of different phosphorylated and non-phosphorylated peptides derived from LRRK2 sequences (Peps4LS GmbH, Germany) toward human 14-3-3 isoforms. Direct binding assays were performed and evaluated as previously described ([Muda et al., 2014]; [Manschwetus et al., 2019]). Briefly, both dilution series of 14-3-3 isoforms ranging from final concentrations of at least 5 μM down to picomolar concentrations and dilutions of the respective fluorescein-labeled peptide (final conc. 1 nM) were prepared in FP buffer (20 mM MOPS pH 7, 150 mM NaCl, 0.005% CHAPS). Subsequently, samples were mixed in 384-well microtiter plates as duplicates (BRAND plates, pureGrade, black, BRAND GmbH & Co. KG, Germany) in a 1:1 ratio and measured using a CLARIOstar plate reader (BMG LABTECH, Germany). Two protein preparations were utilized for at least two independent replications for all measurements while high affinity binding peptides were particularly measured with a minimum of three independent replications for statistical evaluation. Data was analyzed with GraphPad Prism 6.0 (GraphPad Software, San Diego, CA, United States) by plotting obtained FP signals (mPol) against the logarithmic 14-3-3 protein concentrations. Data points represent means ± standard error of mean (SEM) of duplicates. “Ctrl.” indicates the FP signal of fluorescein-labeled peptides without 14-3-3 protein. Sigmoidal dose-response fitting was performed to define KD-values.

[1] = test system: all seven human 14-3-3 isoforms; assay: Fluorescence polarization (FP) direct binding assay, statements over all isoforms; settings: for Binding to the human 14-3-3 isoforms, in words: FP direct binding, all seven isoforms, fluorescein-labeled peptide 1 nM, FP buffer pH 7
Method: as §1, §2

R1441C/pS1444 = molecular target: T2, R1441C/pS1444 (R1441C (stands in the printed letters)); assay: fluorescence polarisation; direct binding; dilution series of 14-3-3 isoform (at least 5 μM down to picomolar) mixed with 1 nM fluorescein-labelled peptide; 20 mM MOPS pH 7, 150 mM NaCl, 0.005% CHAPS; 384-well plates; settings: both partners purified
T2 construct: LRRK2-derived peptide of the Roc domain with the familial PD mutation R1441C, phosphorylated at S1444; source: synthetic peptide (Peps4LS GmbH)
T2 peptide: fluorescein-LFNIKACAS[pS]SPVILVGT

pS1444 = assay: as above

Molecule: KKSN SISVGEFYRDAVLQRCSPNLQRHSNSLGPIF ({fluorescein″}-KKSNSISVGEFYRDAVLQRCSPNLQRHSNSLGPIF) [S910/S935, fluorescein-labeled non-phosphorylated LRRK2-derived 35-mer encompassing S910 and S935]
Binding to 14-3-3γ, in words (human 14-3-3γ): did not bind

Molecule: KKSNpSISVGEFYRDAVLQRCSPNLQRHSNSLGPIF [pS910/S935, fluorescein-labeled LRRK2-derived 35-mer singly phosphorylated at S910]
Binding to 14-3-3γ, in words (human 14-3-3γ): only weak interactions
Binding to the human 14-3-3 isoforms, in words [1]: no isoform specificity could be distinguished

Molecule: LFNIKACASpSSPVILVGT [R1441C/pS1444, fluorescein-labeled LRRK2 Roc domain peptide with R1441C and pS1444]
Binding to 14-3-3γ, in words (human 14-3-3γ): micromolar affinities; also recorded: strongly decreased the nanomolar affinity of pS1444 alone
Binding to the human 14-3-3 isoforms, in words [1]: affinities in the micromolar range
Factor by which the mutation R1441C decreases the affinity to all 14-3-3 isoforms ([1]; FP, R1441C/pS1444 compared with pS1444): ≥ 30

Molecule: LFNIKARASSSPVILVGT [S1443/S1444, fluorescein-labeled non-phosphorylated LRRK2 Roc domain peptide covering S1443 and S1444]
Binding to the human 14-3-3 isoforms, in words [1]: no detectable binding

Molecule: LFNIKARApSSSPVILVGT [pS1443, fluorescein-labeled LRRK2 Roc domain phosphopeptide, pS1443]
Binding to 14-3-3γ, in words (human 14-3-3γ): did not allow for binding
Binding to the human 14-3-3 isoforms, in words [1]: no detectable binding; also recorded: not demonstrated for any isoform

Molecule: RCSPNLQRHpSNSLGPIFDH [pS933, fluorescein-labeled LRRK2-derived phosphopeptide covering pS933]
Binding to 14-3-3γ, in words (human 14-3-3γ): neither the Q930R mutation nor the additional phosphorylation in pS933 could induce binding
Binding to the human 14-3-3 isoforms, in words [1]: no 14-3-3 binding was detectable

Molecule: RCSPNLRRHSNSLGPIFDH [Q930R, fluorescein-labeled non-phosphorylated LRRK2-derived peptide with mutation Q930R]
Binding to 14-3-3γ, in words (human 14-3-3γ): neither the Q930R mutation nor the additional phosphorylation in pS933 could induce binding

Molecule: RCSPNLRRHpSNSLGPIFDH [Q930R/pS933, fluorescein-labeled LRRK2-derived peptide with mutation Q930R and pS933]
Binding to the human 14-3-3 isoforms, in words [1]: no 14-3-3 binding was detectable

Molecule: SPNLQRHSNpSLGPIF [pS935, fluorescein-labeled LRRK2-derived phosphopeptide covering pS935]
Binding to 14-3-3γ, in words (human 14-3-3γ): did not bind; also recorded: no binding was detected
Binding to the human 14-3-3 isoforms, in words [1]: no binding could be detected; also recorded: could not detect binding; also recorded: non-binding

B3: human 14-3-3 isoform ε (recombinant, MBP tag removed) (natural protein, UniProt P62258 1-255, looked up)
chain: MDDREDLVYQAKLAEQAERYDEMVESMKKVAGMDVELTVEERNLLSVAYKNVIGARRASWRIISSIEQKEENKGGEDKLKMIREYRQMVETELKLICCDILDVLDKHLIPAANTGESKVFYYKMKGDYHRYLAEFATGNDRKEAAENSLVAYKAASDIAMTELPPTHPIRLGLALNFSVFYYEILNSPDRACRLAKAAFDDAIAELDTLSEESYKDSTLIMQLLRDNLTLWTSDMQGDGEEQNKEALQDVEDENQ
notes: 14-3-3 epsilon, human; Expressed from pMAL2CX plasmids; also called 14-3-3ε; source: E. coli BL21DE3, purified (maltose-agarose, Factor Xa, anion exchange)
fold decrease in affinity against pS1444 (R1441C/pS1444): ≥ 30 fold
Kd (pS1444): > 1000 nM

The next lines start with results.

Kd (human 14-3-3γ): 11.1 ± 10.7 nM
Molecule: CC[C@H](C)[C@H](NC(=O)[C@@H]1CCCN1C(=O)CNC(=O)[C@H](CC(C)C)NC(=O)[C@H](COP(=O)(O)O)NC(=O)[C@H](CC(N)=O)NC(=O)[C@H](CO)NC(=O)[C@H](Cc1c[nH]cn1)NC(=O)[C@H](CCCNC(=N)N)NC(=O)[C@H](CCCNC(=N)N)NC(=O)[C@H](CC(C)C)NC(=O)[C@H](CC(N)=O)NC(=O)[C@@H]1CCCN1C(=O)[C@H](CO)NC(=O)[C@H](CS)NC(=O)[C@@H](N)CCCNC(=N)N)C(=O)N[C@@H](Cc1ccccc1)C(=O)N[C@@H](CC(=O)O)C(=O)N[C@@H](Cc1c[nH]cn1)C(=O)O [Q930R/pS935]

Kd (human 14-3-3γ): 3.2 ± 0.5 nM
Molecule: CC[C@H](C)[C@H](NC(=O)[C@H](COP(=O)(O)O)NC(=O)[C@H](CC(N)=O)NC(=O)[C@H](CO)NC(=O)[C@H](CCCCN)NC(=O)[C@@H](N)CCCCN)C(=O)N[C@@H](CO)C(=O)N[C@H](C(=O)NCC(=O)N[C@@H](CCC(=O)O)C(=O)N[C@@H](Cc1ccccc1)C(=O)N[C@@H](Cc1ccc(O)cc1)C(=O)N[C@@H](CCCNC(=N)N)C(=O)N[C@@H](CC(=O)O)C(=O)N[C@@H](C)C(=O)N[C@H](C(=O)N[C@@H](CC(C)C)C(=O)N[C@@H](CCC(N)=O)C(=O)N[C@@H](CCCNC(=N)N)C(=O)N[C@@H](CS)C(=O)N[C@@H](CO)C(=O)N1CCC[C@H]1C(=O)N[C@@H](CC(N)=O)C(=O)N[C@@H](CC(C)C)C(=O)N[C@@H](CCC(N)=O)C(=O)N[C@@H](CCCNC(=N)N)C(=O)N[C@@H](Cc1c[nH]cn1)C(=O)N[C@@H](CO)C(=O)N[C@@H](CC(N)=O)C(=O)N[C@@H](COP(=O)(O)O)C(=O)N[C@@H](CC(C)C)C(=O)NCC(=O)N1CCC[C@H]1C(=O)N[C@H](C(=O)N[C@@H](Cc1ccccc1)C(=O)O)[C@@H](C)CC)C(C)C)C(C)C [pS910/pS935]

Binding to 14-3-3γ, in words (human 14-3-3γ): only weak interactions
Molecule: KKSNSISVGEFYRDAVLQRCSPNLQRHSNpSLGPIF [S910/pS935, fluorescein-labeled LRRK2-derived 35-mer singly phosphorylated at S935]
Binding to the human 14-3-3 isoforms, in words [1]: no isoform specificity could be distinguished

Binding to 14-3-3γ, in words (human 14-3-3γ): did not bind; also recorded: no binding
Binding to the human 14-3-3 isoforms, in words [1]: did not bind any of the 14-3-3 isoforms
Molecule: LFNIKACASSSPVILVGT [R1441C, fluorescein-labeled non-phosphorylated LRRK2 Roc domain peptide with mutation R1441C]

fold decrease in affinity against pS1444 (R1441C/pS1444): ≥ 30 fold
Kd (pS1444): 476 nM
B1: human 14-3-3 isoform ζ (recombinant, MBP tag removed) (natural protein, UniProt P63104 1-245, looked up)
chain: MDKNELVQKAKLAEQAERYDDMAACMKSVTEQGAELSNEERNLLSVAYKNVVGARRSSWRVVSSIEQKTEGAEKKQQMAREYREKIETELRDICNDVLSLLEKFLIPNASQAESKVFYLKMKGDYYRYLAEVAAGDDKKGIVDQSQQAYQEAFEISKKEMQPTHPIRLGLALNFSVFYYEILNSPEKACSLAKTAFDEAIAELDTLSEESYKDSTLIMQLLRDNLTLWTSDTQGDEAEAGEGGEN
notes: 14-3-3 zeta, human; Expressed from pMAL2CX plasmids; also called 14-3-3ζ; source: E. coli BL21DE3, purified (maltose-agarose, Factor Xa, anion exchange)

fold decrease in affinity against pS1444 (R1441C/pS1444): ≥ 30 fold
Kd (pS1444): 183 nM
B2: human 14-3-3 isoform β (recombinant, MBP tag removed) (natural protein, UniProt P31946 1-246, looked up)
chain: MTMDKSELVQKAKLAEQAERYDDMAAAMKAVTEQGHELSNEERNLLSVAYKNVVGARRSSWRVISSIEQKTERNEKKQQMGKEYREKIEAELQDICNDVLELLDKYLIPNATQPESKVFYLKMKGDYFRYLSEVASGDNKQTTVSNSQQAYQEAFEISKKEMQPTHPIRLGLALNFSVFYYEILNSPEKACSLAKTAFDEAIAELDTLNEESYKDSTLIMQLLRDNLTLWTSENQGDEGDAGEGEN
notes: 14-3-3 beta, human; Expressed from pMAL2CX plasmids; also called 14-3-3β; source: E. coli BL21DE3, purified (maltose-agarose, Factor Xa, anion exchange)
